Patent US4401604A, “Process for preparing thiosulfenamide derivatives of N-phosphonomethylglycine triesters” (Monsanto Company, priority 1981, dated 1983)

Columns and labels:
Type in all cases: in vivo
[1] = tested on: Rice; experiment: Post-emergence herbicidal activity, greenhouse; conditions: Table II
Excerpt: (§1) A good grade of top soil is placed in aluminum pans having holes in the bottom and compacted to a depth of 0.95 to 1.27 cm. from the top of the pan. A predetermined number of seeds of each of several dicotyledonous and monocotyledonous annual plant species and/or vegetative propagules for the perennial plant species are placed on the soil and pressed into the soil surface. The seeds and/or vegetative propagules are covered with soil and leveled. The pans are then placed on a sand bench in the greenhouse and watered from below as needed. After the plants reach the desired age (two to three weeks), each pan except for the control pans is removed individually to a spraying chamber and sprayed by means of an atomizer operating at a positive air pressure of approximately 1.46 kg/cm^2 absolute. The atomizer contains 6 ml. of a solution or suspension of the chemical. In that 6 ml., is an amount of a cyclohexanone emulsifying agent mixture to give a spray solution or suspension which contains about 0.4% by weight of the emulsifier. The spray solution or suspension contains a sufficient amount of the candidate chemical in order to give application rates corresponding to those set forth in the tables. The spray solution is prepared by taking an aliquot of a 1.0% by weight stock solution or suspension of the candidate chemical in an organic solvent such as acetone or tetrahydrofuran or in water. The emulsifying agent employed is a mixture comprising 35 weight percent butylamine dodecylbenzene sulfonate and 65 weight percent of a tall oil ethylene oxide condensate having about 11 moles of ethylene oxide per mole of tall oil. The pans are returned to the greenhouse and watered as before and the injury to the plants as compared to the control is observed at approximately two and four weeks as indicated in the tables under WAT and the results recorded. In some instances, the two-week observations are omitted.
(§2) The post-emergence herbicidal activity index used in Table I is as follows:
(§3) The plant species utilized in these tests are identified by letter in accordance with the following legend: […]

[2] = tested on: Smartweed; experiment: Post-emergence herbicidal activity, greenhouse
Excerpt: as §1, §2, §3

[3] = tested on: Sorghum; experiment: Post-emergence herbicidal activity, greenhouse; conditions: Table II
Excerpt: as §1, §2, §3

[4] = tested on: Soybean; experiment: Post-emergence herbicidal activity, greenhouse; conditions: Table II
Excerpt: as §1, §2, §3

[5] = tested on: Sugar Beet; experiment: Post-emergence herbicidal activity, greenhouse; conditions: Table II
Excerpt: as §1, §2, §3

[6] = tested on: Velvetleaf; experiment: Post-emergence herbicidal activity, greenhouse
Excerpt: as §1, §2, §3

[7] = tested on: Wheat; experiment: Post-emergence herbicidal activity, greenhouse; conditions: Table II
Excerpt: as §1, §2, §3

[8] = tested on: Wild Buckwheat; experiment: Post-emergence herbicidal activity, greenhouse; conditions: Table II
Excerpt: as §1, §2, §3

[9] = tested on: Yellow Nutsedge; experiment: Post-emergence herbicidal activity, greenhouse; conditions: Table I, 4 WAT
Excerpt: as §1, §2, §3

[10] = tested on: Barnyardgrass; experiment: Pre-emergent herbicidal activity; conditions: Table III; 11.2 kg/h; 2 WAT
Excerpt: (§4) A good grade of top soil is placed in aluminum pans and compacted to a depth of 0.95 to 1.27 cm. from the top of each pan. A predetermined number of seeds or vegetative propagules of each of several plant species are placed on top of the soil in each pan and then pressed down. Herbicidal compositions prepared as in the previous example are applied by admixture with or incorporation in the top layer of soil.
(§5) In this method, the soil required to cover the seeds and propagules is weighed and admixed with a herbicidal composition containing a known amount of the active ingredient (compound of this invention). The pans are then filled with the admixture and leveled. Watering is carried out by permitting the soil in the pans to absorb moisture through apertures in the pan bottoms. The seed and propagule containing pans are placed on a wet sand bench and maintained for approximately two weeks under ordinary conditions of sunlight and watering. At the end of this period, the number of emerged plants of each species is noted and compared to an untreated control.
(§6) The pre-emergent herbicidal activity index used below is based upon average percent control of each species as follows:
(§7) Plant species in the table are identified by the same code letters used in the previous example.

[11] = tested on: Canada Thistle; experiment: Pre-emergent herbicidal activity; conditions: Table III; 11.2 kg/h; 2 WAT
Excerpt: as §4, §5, §6, §7

[12] = tested on: Cocklebur; experiment: Pre-emergent herbicidal activity; conditions: Table III; 11.2 kg/h; 2 WAT
Excerpt: as §4, §5, §6, §7

[13] = tested on: Downy Brome; experiment: Pre-emergent herbicidal activity; conditions: Table III; 11.2 kg/h; 2 WAT
Excerpt: as §4, §5, §6, §7

[14] = tested on: Johnsongrass; experiment: Pre-emergent herbicidal activity; conditions: Table III; 11.2 kg/h; 2 WAT
Excerpt: as §4, §5, §6, §7

[15] = tested on: Lambsquarters; experiment: Pre-emergent herbicidal activity; conditions: Table III; 11.2 kg/h; 2 WAT
Excerpt: as §4, §5, §6, §7

[16] = tested on: Morningglory; experiment: Pre-emergent herbicidal activity; conditions: Table III; 11.2 kg/h; 2 WAT
Excerpt: as §4, §5, §6, §7

[17] = tested on: Quackgrass; experiment: Pre-emergent herbicidal activity; conditions: Table III; 11.2 kg/h; 2 WAT
Excerpt: as §4, §5, §6, §7

[18] = tested on: Smartweed; experiment: Pre-emergent herbicidal activity; conditions: Table III; 11.2 kg/h; 2 WAT
Excerpt: as §4, §5, §6, §7

[19] = tested on: Velvetleaf; experiment: Pre-emergent herbicidal activity; conditions: Table III; 11.2 kg/h; 2 WAT
Excerpt: as §4, §5, §6, §7

[20] = tested on: Yellow Nutsedge; experiment: Pre-emergent herbicidal activity; conditions: Table III; 11.2 kg/h; 2 WAT
Excerpt: as §4, §5, §6, §7

COC(=O)CN(CP(=O)(Oc1ccccc1OC)Oc1ccccc1OC)SSc1cccc(C(F)(F)F)c1 [V]
post-emergence herbicidal activity index ([1]; 0.28 kg/h, 2 WAT): 0 (0- 24% control) | post-emergence herbicidal activity index ([1]; 1.12 kg/h, 4 WAT): 0 (0- 24% control) | post-emergence herbicidal activity index ([1]; 5.6 kg/h, 4 WAT): 1 (25-49% control) | post-emergence herbicidal activity index ([2]; Table I, 5.6 kg/h, 4 WAT): 1 (25-49% control) | post-emergence herbicidal activity index ([2]; Table I, 11.2 kg/h, 4 WAT): 2 (50-74% control) | post-emergence herbicidal activity index ([2]; Table II, 0.28 kg/h, 2 WAT): 0 (0- 24% control) | post-emergence herbicidal activity index ([2]; Table II, 1.12 kg/h, 4 WAT): 3 (75-99% control) | post-emergence herbicidal activity index ([2]; Table II, 5.6 kg/h, 4 WAT): 2 (50-74% control) | post-emergence herbicidal activity index ([3]; 0.28 kg/h, 2 WAT): 0 (0- 24% control) | post-emergence herbicidal activity index ([3]; 1.12 kg/h, 4 WAT): 0 (0- 24% control) | post-emergence herbicidal activity index ([3]; 5.6 kg/h, 4 WAT): 0 (0- 24% control) | post-emergence herbicidal activity index ([4]; 0.28 kg/h, 2 WAT): 0 (0- 24% control) | post-emergence herbicidal activity index ([4]; 1.12 kg/h, 4 WAT): 0 (0- 24% control) | post-emergence herbicidal activity index ([4]; 5.6 kg/h, 4 WAT): 1 (25-49% control) | post-emergence herbicidal activity index ([5]; 0.28 kg/h, 2 WAT): 0 (0- 24% control) | post-emergence herbicidal activity index ([5]; 1.12 kg/h, 4 WAT): 2 (50-74% control) | post-emergence herbicidal activity index ([5]; 5.6 kg/h, 4 WAT): 2 (50-74% control) | post-emergence herbicidal activity index ([6]; Table I, 5.6 kg/h, 4 WAT): 1 (25-49% control) | post-emergence herbicidal activity index ([6]; Table I, 11.2 kg/h, 4 WAT): 0 (0- 24% control) | post-emergence herbicidal activity index ([6]; Table II, 0.28 kg/h, 2 WAT): 0 (0- 24% control) | post-emergence herbicidal activity index ([6]; Table II, 1.12 kg/h, 4 WAT): 0 (0- 24% control) | post-emergence herbicidal activity index ([6]; Table II, 5.6 kg/h, 4 WAT): 1 (25-49% control) | post-emergence herbicidal activity index ([7]; 0.28 kg/h, 2 WAT): 0 (0- 24% control) | post-emergence herbicidal activity index ([7]; 1.12 kg/h, 4 WAT): 1 (25-49% control) | post-emergence herbicidal activity index ([7]; 5.6 kg/h, 4 WAT): 3 (75-99% control) | post-emergence herbicidal activity index ([8]; 0.28 kg/h, 2 WAT): 0 (0- 24% control) | post-emergence herbicidal activity index ([8]; 1.12 kg/h, 4 WAT): 0 (0- 24% control) | post-emergence herbicidal activity index ([8]; 5.6 kg/h, 4 WAT): 0 (0- 24% control) | post-emergence herbicidal activity index ([9]; 5.6 kg/h): 1 (25-49% control) | post-emergence herbicidal activity index ([9]; 11.2 kg/h): 1 (25-49% control) | pre-emergent herbicidal activity index [10]: 3 (75-100% control) | pre-emergent herbicidal activity index [11]: 2 (50-74% control) | pre-emergent herbicidal activity index [12]: 0 (0-24% control) | pre-emergent herbicidal activity index [13]: 2 (50-74% control) | pre-emergent herbicidal activity index [14]: 3 (75-100% control) | pre-emergent herbicidal activity index [15]: 0 (0-24% control) | pre-emergent herbicidal activity index [16]: 1 (25-49% control) | pre-emergent herbicidal activity index [17]: 1 (25-49% control) | pre-emergent herbicidal activity index [18]: 1 (25-49% control) | pre-emergent herbicidal activity index [19]: 0 (0-24% control) | pre-emergent herbicidal activity index [20]: 0 (0-24% control)
